One test addresses T1, rat GLP-1 receptor (Rattus norvegicus, UniProt P32301).
T1 construct: expressed in transfected cells; host or cells: CHO DXB-11 (Chinese hamster ovary) cells, used as a membrane preparation
T1 sequence (P32301 22-463): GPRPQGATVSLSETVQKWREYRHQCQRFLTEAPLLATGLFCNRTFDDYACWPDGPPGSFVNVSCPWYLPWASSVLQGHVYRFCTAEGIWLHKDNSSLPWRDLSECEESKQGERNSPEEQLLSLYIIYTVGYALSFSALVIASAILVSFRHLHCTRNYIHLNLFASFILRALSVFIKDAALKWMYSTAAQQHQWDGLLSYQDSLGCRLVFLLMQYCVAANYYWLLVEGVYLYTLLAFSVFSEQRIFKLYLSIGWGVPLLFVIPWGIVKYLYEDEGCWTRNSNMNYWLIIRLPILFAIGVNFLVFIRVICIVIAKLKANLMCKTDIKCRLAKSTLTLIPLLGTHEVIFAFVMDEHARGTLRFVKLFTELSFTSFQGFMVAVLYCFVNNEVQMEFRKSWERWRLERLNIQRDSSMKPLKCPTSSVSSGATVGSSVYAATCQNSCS
Kind of test: cAMP Assay (in vitro receptor binding assay) on membrane preparation. The following applies: cAMP production, CHO membranes expressing rat GLP-1 receptor; mean ± spread. Format: biochemical. For orientation: cAMP levels reflect the balance of adenylyl cyclase and phosphodiesterase activity.

In test [1] the test system is Sprague Dawley or Zucker Diabetic Fatty rats. Kind of test: Rat IV Glucose (1 g/kg) Tolerance Test. The following applies: for Insulin Change AUC: 0-15 min. The format is in vivo. On the procedure:
a) Glucose Tolerance Tests
Experiments were conducted in overnight-fasted, conscious, male Sprague Dawley (Charles River) or Zucker Diabetic Fatty (Genetic Models, Inc.) rats weighing approximately 250 (Sprague Dawley rats) or 300 (Zucker Diabetic Fatty rats) grams. Four to five days prior the study, rats were anesthetized with isoflurane, and a polyethylene (PE50) catheter was inserted into the right jugular vein. The catheter was secured with a wound clip, filled with saline containing heparin (2% sodium heparin), and closed with a small stainless steel plug.
After a sixteen-hour fast, twelve chronically cannulated rats were separated into four groups of three rats per group. 0.4 ml of blood was taken from the tail vein, collected into a microtainer tube containing lithium heparin, and immediately placed on ice (zero minute sample). A glucose bolus (1.0 g/kg; 50% glucose (w/v) in water) was administered via the indwelling jugular cannula, and the cannula was rinsed with 200 μl of saline. Twenty seconds later a bolus of test substance 100 μl/100 g body weight of either vehicle (saline containing 0.3% (w/v) bovine serum albumin) or vehicle containing analog! was administered through the jugular cannula, and the cannula was rinsed as before. Rats were bled from the tail again at 2, 5, 10, 20 and 30 minutes after the administration of the glucose bolus, and the samples were treated as described above. At the end of the experiment, blood samples were centrifuged, and the plasma was collected.
Plasma glucose concentrations were determined the day of the experiment using a coupled hexokinase procedure in a clinical chemistry analyzer. Plasma for insulin determinations were diluted with zero calibrator and frozen at -20° C. until time for analysis. Insulin concentrations were determined using a commercial radioimmunoassay kit with rat insulin as the standard.
Insulin change (the change in insulin from the baseline value) was calculated as the difference between the insulin concentration at time t and the insulin concentration at zero time. The area under the insulin change curve was calculated using the trapezoidal rule. Plasma glucose change (the increase in plasma glucose above the baseline value) was calculated as the difference between the plasma glucose concentration at time t and the plasma glucose concentration at zero time. The area under the plasma glucose change curve was calculated using the trapezoidal rule. Values are listed as the mean ± the standard error of the mean (SEM).

Test [2] has as its system beagles. Kind of test: Dog I.V. Hyperglycemic (150 mg/dl) Clamp Test. The format is in vivo. The following applies: I.V. 1.0 μg/kg. The protocol: (§1) a) Hyperglycemic Clamp Studies
(§2) Experiments were conducted in overnight-fasted, conscious, adult (1-2 years of age) male and female beagles weighing 8-15 kg. At least ten days prior to the study, animals were anesthetized with isoflurane, and a cut-down was made in the left or right inguinal region. Silastic catheters were inserted into the femoral artery and the proximal caudal femoral vein and secured with 4-0 silk suture. The free ends of the catheters were passed subcutaneously to the back using a trocar needle. The catheters were then filled with a glycerol/heparin solution (3:1, v/v; final heparin concentration of 250 KIU/ml), and the free ends were knotted and placed in a subcutaneous pocket to allow complete closure of the skin. Keflex® was administered both pre-operatively (20 mg/kg, IV and 20 mg/kg, I.M.) and post-operatively (250 mg, p.o. once daily for seven days) to prevent infections. Torbugesic (1.5 mg/kg, I.M.) was administered post-operativelyto control pain.
(§3) Blood was drawn just prior to the study day to determine the health of the animal. Only animals with hematocrits above 38% and leukocyte counts below 16,000/mm^3 were used.
(§4) The afternoon before the experiment, the free ends of the catheters were exteriorized from the subcutaneous pocket through a small incision made under local anesthesia (2% lidocaine), and the dog was fitted with a tether system jacket and collar assembly.
(§5) The morning of the experiment, the contents of the catheters were aspirated, the catheters were flushed with saline, and extension lines (protected by a stainless steel tether) were attached to the catheters. On mornings of IV injection experiments, an over-the-needle, teflon catheter was inserted percutaneously into a cephalic vein in preparation for the administration of an IV bolus of test substance. The dog was placed in a metabolic cage, and the catheter extension lines and tether were attached to a swivel system to allow the dog to move freely about the cage. At this time (-60 minutes), an exogenous infusion of glucose (50% w/v in water) was begun through the chronic venous catheter. Glucose was infused in a descending stepwise fashion over the first six minutes of the study to rapidly raise the plasma glucose concentration to 150 mg/dl. Plasma glucose concentrations were determined every 2.5 to 7.5 minutes throughout the remainder of the study, and the glucose infusion rate was adjusted appropriately to maintain the plasma glucose concentration at 150 mg/dl.
(§6) Sixty minutes after the start of the glucose infusion (time 0), test substance was administered either intravenously (1.0, 2.9, 5.0 or 10.0 μg/kg; dose dissolved in 2 ml of saline containing 0.3% dog albumin, w/v) through the previously inserted teflon catheter or subcutaneously (10 μg/kg; 150 μM in phosphate buffered saline) in the dorsal aspect of the neck.
(§7) Arterial blood samples (3.5 ml) were taken at -30, -15, 0, 2.5, 5, 7.5, 10, 12.5, 15, 20, 30, 45, 60, 75, 90, 105 and 120 minutes during the IV studies and at -30, -15, 0, 3, 6, 9, 12, 15, 20, 30, 45, 60, 75, 90, 105 and 120 minutes during the SC studies. Samples were collected in vacuum blood collection tubes containing disodium EDTA and immediately placed on ice. To prevent proteolytic cleavage of GLP-1(7-37) in the plasma samples, 1.5 ml of the EDTA containing blood were transferred to a polypropylene tube containing 40 μl of aprotinin (10,000 KIU/ml) and mixed well. The samples were centrifuged, and the resulting plasma was transferred to polypropylene test tubes and stored on ice for the duration of the study.
(§8) At the conclusion of the experiment, the animal was anesthetized (isoflurane); the catheters were flushed with fresh saline and filled with the glycerol/heparin mixture; the free ends of the catheters were knotted and placed subcutaneously as described earlier; and antibiotic was administered (300 mg Keflex®, I.M.). […]

Test [3] concerns beagles. Kind of test: Dog S.C. Hyperglycemic (150 mg/dl) Clamp Test. Format: in vivo. The following applies: S.C. 10 μg/kg. The protocol:
as §1, §2, §3, §4, §5, §6, §7, §8

Setting [4] is: 120 minute test period, mean ± SEM.

Description for rat GLP-1 receptor: A sample of the membrane preparation was preincubated with a test compound or a control compound in buffer (25 mM HEPES, 0.2% (w/v) BSA, pH 7.6) at 32° C. for 10 minutes. Reaction buffer (final concentration: 25 mM HEPES, 0.2% (w/v) BSA, 2.6 mM Mg, 0.8 mMATP, 0.1 mM GTP, 5 mM creatine phosphate, creatine kinase 50 U/ml, 0.2 mM IBMX, pH 7.6) was added and incubated for an additional 30 minutes. Incubations were stopped by adding 10 mM EDTA.
Production of cAMP was assayed using a fluorescent tracer-immuno assay method. In brief, after the incubation was stopped, fluorescent tracer (cAMP-b phycoerythrin conjugate) was added followed by the addition of affinity purified anti-cAMP rabbit antiserum. After incubation at room temperature for 45 minutes, anti-rabbit IgG coated assay beads were added and incubated for an additional 15 minutes. Plates were then evacuated and read on a Pandex PFCIA reader.
Fluorescent intensity values were correlated to rate of cAMP production (pmol/min/mg).

For “N- Imidazole-α,α-dimethyl-acetyl!GLP-1 (8-37)OH [α,α-imidazoacetyl-GLP-1(8-37)OH]”, the “% Relative Potency” value on rat GLP-1 receptor is recorded as 108.2 ± 22.4%.
GLP-1(7-36)NH2: the “Insulin Change at 10 min” value in test [1] (IV dose 0.2 mg/kg) came out at 1.8 ng/mL; in test [1] (IV dose 0.3 mg/kg), 2.2 ng/mL; in test [1] (IV dose 0.4 mg/kg) it was 3.8 ng/mL; in test [1] (IV dose 0.6 mg/kg), 3.4 ng/mL; in test [1] (IV dose 0.8 mg/kg), 4.1 ng/mL; in test [1] (IV dose 1.0 mg/kg), 3.9 ng/mL. For the same substance, the “Insulin Change at 10 min” value in test [1] (IV dose 2.0 mg/kg) worked out at 4.9 ng/mL. For the same substance, the “Max Insulin Change” value in test [1] (IV dose 0.2 mg/kg) was 4.0 ng/mL; in test [1] (IV dose 0.3 mg/kg), 6.1 ng/mL; in test [1] (IV dose 0.4 mg/kg), 7.7 ng/mL; in test [1] (IV dose 0.6 mg/kg) it was 7.7 ng/mL; in test [1] (IV dose 0.8 mg/kg), 11.3 ng/mL; in test [1] (IV dose 1.0 mg/kg) it was 11.4 ng/mL. For the same substance, the “Max Insulin Change” value in test [1] (IV dose 2.0 mg/kg) came to 11.7 ng/mL; in the test with beagles [2] (setting [4]), 3.4 ± 0.6 ng/mL. Further, the “Insulin Change AUC” value amounted to 34 ± 4 ng·min/mL in test [1] (IV dose 0.2 mg/kg); 50 ± 13 ng·min/mL in test [1] (IV dose 0.3 mg/kg); 73 ± 14 ng·min/mL in test [1] (IV dose 0.4 mg/kg); 67 ± 11 ng·min/mL in test [1] (IV dose 0.6 mg/kg); 97 ± 25 ng·min/mL in test [1] (IV dose 0.8 mg/kg); 89 ± 16 ng·min/mL in test [1] (IV dose 1.0 mg/kg). Moreover, the “Insulin Change AUC” value in the test with beagles [2] (0-60 min, mean ± SEM) was 32 ± 8 ng·min/mL. In addition, in the test on beagles [2] (0-60 min, mean ± SEM), the “GIR Change AUC” value came out at 414 ± 73 mg/kg. Also, in the test on beagles [2] (time average insulin change consistently ≥0.5 ng/ml), the “Duration of Insulin Effect” value worked out at 2.5 min.
Turning to “Arg^26 -Lys^34 -N^ε -octanoyl-GLP-1(8-37)OH [Arg^26-Lys^34-N^ε-octanoyl-GLP-1(8-37)OH]”, in the test on beagles [3] (0-120 min, mean ± SEM), the “GIR Change AUC” value came to 659 ± 182 mg/kg and the “Insulin Change AUC” value is 11 ± 26 ng·min/mL. The “Max Insulin Change” value in the test on beagles [3] (setting [4]) is 0.6 ± 0.4 ng/mL. Besides, the “Duration of Insulin Effect” value with beagles [3] (time average insulin change consistently >0.5 ng/ml) was “not active”.
